From patent publication US20230026259A1, “CA2 COMPOSITIONS AND METHODS FOR TUNABLE REGULATION” (Obsidian Therapeutics, Inc., priority 2019, published 2023)

Experiments:
Assay type in all cases: cell-based
[1] = test system: human primary T cells; experiment: Expression of IL15 chimeric constructs by flow cytometry (percent IL15 positive cells)
Excerpt: In vitro activity of IL15 chimeric constructs OT-002019 ((Met; CD34 (aa 1-32 of WT, M1G, S32A); IL15 (30-162 of WT); Linker ((GS)15); CD8a Hinge and Transmembrane Domain; Linker (GS); stop), amino acid SEQ ID NO: 210876, nucleic acid SEQ ID NO: 210877) and OT-002090 ((Ig Kappa light chain leader; IL15 (49-162 of WT); Linker ((GS)15); B7-1 Hinge, Transmembrane Domain and Tail; Linker (GS); stop), amino acid SEQ ID NO: 210878, nucleic acid SEQ ID NO: 210879) and CA2 regulated IL15 chimeric construct (OT-002094) were tested in human primary T cells. Human primary T cells were transduced with lentivirus 24 hours after activation with CD3/CD28 beads. Cells were expanded for 10 days. […] The percentage of IL15 positive cells obtained for each treatment group is as follows (a) OT-002019: 82.3% (b) OT-002090: 43.6% (c) OT-002094 with DMSO: 0.7% (d) OT-002094 with 10 μM Acz: 27.9% and (e) untransduced (UT): 0.3%.
(§1) To test IL15-dependent expansion, beads were removed on day 10 and cells were washed. […] The T cell numbers (Table 30) and the change in CD4/CD8 ratio (Table 31) were determined by flow cytometry.

[2] = test system: human primary T cells; experiment: IL15-dependent expansion: T cell numbers and CD4/CD8 ratio by flow cytometry
Method: as §1

[3] = test system: NIH3T3 cells; experiment: Immunoblotting of cell lysates for GFP after ligand treatment; details: 24 hours; for GFP protein expression by immunoblot, Acetazolamide: NIH3T3 cells, 0.3, 1, 3, 10 or 30 μM Acetazolamide
Method: The protein expression in the presence of ligand was measured by immunoblotting the cell lysates for GFP.
The protein expression in the presence of ligand was measured by immunoblotting cell lysates for GFP.

[4] = test system: NIH3T3 cells; experiment: Destabilization mutant screening of human CA2 linked to GFP, ligand response by FACS (Valdecoxib, Celecoxib, Acetazolamide)
Method: To identify destabilizing mutations of human CA2 that are stabilized upon ligand binding to CA2, two rounds of mutant screening were performed, using a lentivirus CA2 mutant library provided by Genscript (China). These methods were used to generate a library of mutant polypeptides using mutagenesis primers and error prone PCR. Lentiviral vectors expressing the template, wild-type human CA2 operably linked to GFP(OT-001986) was also provided by Genscript along with the CA2 mutant library. The library was packaged into lentivirus, transduced into NIH3T3 cells at a multiplicity of infection (MOI) of approximately 0.3 and select stable cell pools were derived by selecting with selection marker puromycin.
To identify cell pools containing destabilizing mutants of CA2 that are stabilizing when CA2 is bound to its corresponding ligand, cells were sorted using FACS. In the initial round, the bottom 15% of population that was GFP negative in the absence of ligand was selected. Cells were expanded and then treated with 10 μM Celecoxib for 24 hours and harvested for cell sorting. The top 11% GFP positive cells which were also responsive to ligand treatment compared to untreated were collected. Celecoxib was removed from the cultures and replaced with DMSO. […] Genomic DNA was isolated and amplified CA2 mutants were reintroduced to the lentiviral vectors where CA2 was operably linked to GFP. The constructs were transduced into NIH3T3 cells with lentivirus vectors for each clone. The cells were treated with 10 μM Valdecoxib or 10 μM Celecoxib for 24 hours and analyzed by FACS. […] In Table 25, the Construct ID (OT-XXXXXX) refers to the construct which includes the referenced CA2 mutant and the Library ID (LibCXXXXXX) refers to the CA2 mutant itself.
The response of NIH3T3 cells to varying doses of Valdecoxib or Celecoxib for 24 hours was measured and analyzed by FACS.
Clones treated with different ligands were compared to examine the behavior of each mutant with the ligands.

[5] = test system: NIH3T3 cells; experiment: as above; remark: listed apart in the source
[6] = NIH3T3, Celecoxib μM (concentration not given)
[7] = NIH3T3, Valdecoxib μM (concentration not given)
[8] = NIH3T3, Celecoxib 0 μM, 24 hours
[9] = NIH3T3, Celecoxib 0.03 μM, 24 hours
[10] = NIH3T3, Celecoxib 0.1 μM, 24 hours
[11] = NIH3T3, Celecoxib 0.3 μM, 24 hours
[12] = NIH3T3, Celecoxib 1 μM, 24 hours
[13] = NIH3T3, Celecoxib 3 μM, 24 hours
[14] = NIH3T3, Celecoxib 10 μM, 24 hours
[15] = NIH3T3, Celecoxib 30 μM, 24 hours
[16] = NIH3T3, Valdecoxib 0 μM, 24 hours
[17] = NIH3T3, Valdecoxib 0.03 μM, 24 hours
[18] = NIH3T3, Valdecoxib 0.1 μM, 24 hours
[19] = NIH3T3, Valdecoxib 0.3 μM, 24 hours
[20] = NIH3T3, Valdecoxib 1 μM, 24 hours
[21] = NIH3T3, Valdecoxib 3 μM, 24 hours
[22] = NIH3T3, Valdecoxib 10 μM, 24 hours
[23] = NIH3T3, Valdecoxib 30 μM, 24 hours
[24] = day 0 in culture, untransduced T cells + exogenous IL15 1 ng/ml
[25] = day 3 in culture, untransduced T cells + exogenous IL15 1 ng/ml
[26] = day 7 in culture, untransduced T cells + exogenous IL15 1 ng/ml
[27] = day 10 in culture, untransduced T cells + exogenous IL15 1 ng/ml

## (Met; CD34 (aa 1-32 of WT, M1G, S32A); IL15 (30-162 of WT); Linker ((GS)15); CD8a Hinge and Transmembrane Domain; Linker (GS); stop) [OT-002019]
[1]; day 0 in culture, 3 uM ACZ
  Percent of cells IL15 positive: 75%
[1]; day 0 in culture, 10 uM ACZ
  Percent of cells IL15 positive: 75%
[1]; day 0 in culture, media alone
  Percent of cells IL15 positive: 75%
[1]; day 3 in culture, 3 uM ACZ
  Percent of cells IL15 positive: 82%
[1]; day 3 in culture, 10 uM ACZ
  Percent of cells IL15 positive: 82%
[1]; day 3 in culture, media alone
  Percent of cells IL15 positive: 82%
[1]; day 7 in culture, 3 uM ACZ
  Percent of cells IL15 positive: 84%
[1]; day 7 in culture, 10 uM ACZ
  Percent of cells IL15 positive: 85%
[1]; day 7 in culture, media alone
  Percent of cells IL15 positive: 84%
[1]; day 10 in culture, 3 uM ACZ
  Percent of cells IL15 positive: 78%
[1]; day 10 in culture, 10 uM ACZ
  Percent of cells IL15 positive: 79%
[1]; day 10 in culture, media alone
  Percent of cells IL15 positive: 76%
[1]; human primary T cells, day 6, no ligand stated
  percentage of IL15 positive cells: 82.3%
[2]; day 0 in culture, 3 uM ACZ
  CD4/CD8 Ratio: 2.51
  T Cell Numbers: 1.0E+06
[2]; day 0 in culture, 10 uM ACZ
  CD4/CD8 Ratio: 2.51
  T Cell Numbers: 1.0E+06
[2]; day 0 in culture, media alone
  CD4/CD8 Ratio: 2.51
  T Cell Numbers: 1.0E+06
[2]; day 3 in culture, 3 uM ACZ
  CD4/CD8 Ratio: 0.46
  T Cell Numbers: 1.7E+06
[2]; day 3 in culture, 10 uM ACZ
  CD4/CD8 Ratio: 0.47
  T Cell Numbers: 1.7E+06
[2]; day 3 in culture, media alone
  CD4/CD8 Ratio: 0.45
  T Cell Numbers: 2.0E+06
[2]; day 7 in culture, 3 uM ACZ
  CD4/CD8 Ratio: 0.06
  T Cell Numbers: 5.7E+06
[2]; day 7 in culture, 10 uM ACZ
  CD4/CD8 Ratio: 0.07
  T Cell Numbers: 5.6E+06
[2]; day 7 in culture, media alone
  CD4/CD8 Ratio: 0.06
  T Cell Numbers: 6.7E+06
[2]; day 10 in culture, 3 uM ACZ
  CD4/CD8 Ratio: 0.02
  T Cell Numbers: 1.7E+07
[2]; day 10 in culture, 10 uM ACZ
  CD4/CD8 Ratio: 0.03
  T Cell Numbers: 1.6E+07
[2]; day 10 in culture, media alone
  CD4/CD8 Ratio: 0.02
  T Cell Numbers: 2.1E+07

## CA2 (aa 2-260 of WT, I59N, G102R) [LibC000184]
[3]
  GFP protein expression by immunoblot, Acetazolamide: stabilization of GFP with increasing ligand doses
[4]; NIH3T3, Acetazolamide 10 μM
  MFI, comparative analysis: 9295
[4]; NIH3T3, Acetazolamide 30 μM
  MFI, comparative analysis: 10900
[4]; [6]
  MFI, comparative analysis, normalized to parental day 1: 4660.217
[4]; NIH3T3, DMSO
  MFI, comparative analysis: 380
[4]; [7]
  MFI, comparative analysis, normalized to parental day 1: 3478.892

## CA2 (aa 2-260 of WT, L156H) [LibC000208]
[3]
  GFP protein expression by immunoblot, Acetazolamide: stabilization of GFP with increasing ligand doses
[3]; NIH3T3 cells, 1, 3, 10 or 30 μM Celecoxib or Valdecoxib
  GFP protein expression by immunoblot, Celecoxib or Valdecoxib: stabilization of GFP with increasing ligand doses
[5]; NIH3T3, Acetazolamide 0.03 μM vs DMSO
  Fold change: 1.57
[5]; NIH3T3, DMSO (reference), Acetazolamide experiment
  Fold change: 1
[5]; NIH3T3 cells, 24 hours, FACS
  GFP expression with varying doses of Acetazolamide: dose response stabilization of GFP expression
[4]; NIH3T3, 10 μM Celecoxib
  Median PE: 8690
[4]; NIH3T3, 10 μM Celecoxib vs DMSO
  SR (stabilization ratio): 9.38
[4]; NIH3T3, 10 μM Valdecoxib
  Median PE: 8006
[4]; NIH3T3, 10 μM Valdecoxib vs DMSO
  SR (stabilization ratio): 8.65
[4]; NIH3T3, Acetazolamide 0.03 μM, 24 hours
  Median FITC / Median PE: 1190
[4]; NIH3T3, Acetazolamide 0.1 μM vs DMSO
  Fold change: 2.82
[4]; NIH3T3, Acetazolamide 0.1 μM, 24 hours
  Median FITC / Median PE: 2137
[4]; NIH3T3, Acetazolamide 0.3 μM vs DMSO
  Fold change: 6.23
[4]; NIH3T3, Acetazolamide 0.3 μM, 24 hours
  Median FITC / Median PE: 4715
[4]; NIH3T3, Acetazolamide 1 μM vs DMSO
  Fold change: 13.17
[4]; NIH3T3, Acetazolamide 1 μM, 24 hours
  Median FITC / Median PE: 9970
[4]; NIH3T3, Acetazolamide 3 μM vs DMSO
  Fold change: 18.36
[4]; NIH3T3, Acetazolamide 3 μM, 24 hours
  Median FITC / Median PE: 13900
[4]; NIH3T3, Acetazolamide 10 μM
  MFI, comparative analysis: 16900
[4]; NIH3T3, Acetazolamide 10 μM vs DMSO
  Fold change: 22.32
[4]; NIH3T3, Acetazolamide 10 μM, 24 hours
  Median FITC / Median PE: 16900
[4]; NIH3T3, Acetazolamide 30 μM
  MFI, comparative analysis: 17800
[4]; NIH3T3, Acetazolamide 30 μM vs DMSO
  Fold change: 23.51
[4]; NIH3T3, Acetazolamide 30 μM, 24 hours
  Median FITC / Median PE: 17800
[4]; [8]
  Med (median fluorescence intensity): 906
  SR (stabilization ratio): 1
[4]; [9]
  Med (median fluorescence intensity): 1017
  SR (stabilization ratio): 1.12
[4]; [10]
  Med (median fluorescence intensity): 1194
  SR (stabilization ratio): 1.32
[4]; [11]
  Med (median fluorescence intensity): 1457
  SR (stabilization ratio): 1.61
[4]; [12]
  Med (median fluorescence intensity): 2221
  SR (stabilization ratio): 2.45
[4]; [13]
  Med (median fluorescence intensity): 5404
  SR (stabilization ratio): 5.96
[4]; [14]
  Med (median fluorescence intensity): 9766
  SR (stabilization ratio): 10.78
[4]; [15]
  Med (median fluorescence intensity): 13200
  SR (stabilization ratio): 14.57
[4]; [6]
  MFI, comparative analysis, normalized to parental day 1: 8707.036
[4]; NIH3T3, DMSO
  MFI, comparative analysis: 757
  Median PE: 926
[4]; NIH3T3, DMSO (reference)
  SR (stabilization ratio): 1
[4]; NIH3T3, DMSO, 24 hours (Acetazolamide experiment)
  Median FITC / Median PE: 757
[4]; [16]
  Med (median fluorescence intensity): 906
  SR (stabilization ratio): 1
[4]; [17]
  Med (median fluorescence intensity): 1049
  SR (stabilization ratio): 1.16
[4]; [18]
  Med (median fluorescence intensity): 1131
  SR (stabilization ratio): 1.25
[4]; [19]
  Med (median fluorescence intensity): 1219
  SR (stabilization ratio): 1.35
[4]; [20]
  Med (median fluorescence intensity): 1747
  SR (stabilization ratio): 1.93
[4]; [21]
  Med (median fluorescence intensity): 3603
  SR (stabilization ratio): 3.98
[4]; [22]
  Med (median fluorescence intensity): 8284
  SR (stabilization ratio): 9.14
[4]; [23]
  Med (median fluorescence intensity): 11300
  SR (stabilization ratio): 12.48
[4]; [7]
  MFI, comparative analysis, normalized to parental day 1: 7385.735
[4]; NIH3T3 cells, 24 hours, FACS
  stabilization with varying doses of Valdecoxib or Celecoxib: dose dependent stabilization

## IL15
[1]; [24]
  Percent of cells IL15 positive: 0%
[1]; [25]
  Percent of cells IL15 positive: 1%
[1]; [26]
  Percent of cells IL15 positive: 0%
[1]; [27]
  Percent of cells IL15 positive: 1%
[2]; [24]
  CD4/CD8 Ratio: 5.64
  T Cell Numbers: 1.0E+06
[2]; [25]
  CD4/CD8 Ratio: 2.57
  T Cell Numbers: 3.2E+06
[2]; [26]
  CD4/CD8 Ratio: 0.64
  T Cell Numbers: 5.4E+06
[2]; [27]
  CD4/CD8 Ratio: 0.28
  T Cell Numbers: 1.2E+07
